From patent US8329645B2, “Polymyxin derivatives and uses thereof” (priority 2008, dated 2012)
≈ marks a conversion by molar mass, not a printed value. Like-named read-outs stand apart in the source and are kept apart here. Where a SMILES comes first, the peptide text is derived from it. Bridges are numbered along the chain shown (N, C = ends). [ ]: non-standard residue; d: D form. The star is where a group is joined. Octanoyl = CCCCCCCC(=O)*; Dab = NCC[C@H](N)C(=O)O

Key:
[1] = tested on: E. coli ATCC25922; settings: E. coli ATCC25922
Summary of the method: (§1)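 Strips carrying an antibiotic concentration gradient were placed on inoculated plates following the supplier's directions, and the MIC was then recorded.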

[2] = tested on: K. pneumoniae ATCC13883; settings: K. pneumoniae ATCC13883
Summary of the method: as §1

[3] = tested on: P. aeruginosa F58
Procedure: (§2) Polymyxin B sulfate (Sigma-Aldrich, St. Louis, Mo., USA) was used as a control. […] The bacterial test strains originated from ATCC (10 strains), CCUG (11 strains), and NCTC (3 strains). Fourteen (14) strains (the F-strains) were purchased from Mobidiag Ltd., Helsinki, Finland.
(§3) The inocula were prepared by adjusting the bacterial suspensions to a density equivalent to OD546 nm˜0.3 (˜10^8 CFU/ml˜0.5 McFarland) the yeast suspension to a density equivalent to OD546 nm˜0.75 (˜2×10^7 CFU/ml)._The suspensions were diluted to 10^7 CFU/ml. The plates were inoculated by using a Denley Multipoint Inoculator, 1 μl per spot corresponding to approx. 10^4 CFU/spot. Plates were incubated for 16-20 hours at 35° C.

[4] = tested on: K. pneumoniae CCUG 45421; settings: K. pneumoniae CCUG45421
Procedure: as §2, §3

[5] = tested on: E. coli ATCC 25922
Procedure: as §2, §3

[6] = tested on: K. pneumoniae F136
Procedure: as §2, §3

[7] = tested on: E. cloacae F231
Procedure: as §2, §3

[8] = tested on: E. coli F8
Procedure: as §2, §3

[9] = tested on: E. coli NCTC 13351; settings: E. coli NCTC13351
Procedure: as §2, §3

[10] = tested on: E. coli NCTC 13352
Procedure: as §2, §3

[11] = tested on: E. coli NCTC 13353
Procedure: as §2, §3

[12] = tested on: E. coli IH3080
Procedure: as §2, §3

[13] = tested on: S. marcescens ATCC 8100
Procedure: as §2, §3

[14] = tested on: K. pneumoniae F145
Procedure: as §2, §3

[15] = tested on: K. oxytoca ATCC 13182
Procedure: as §2, §3

[16] = tested on: E. coli CCUG 41432
Procedure: as §2, §3

[17] = tested on: E. coli CCUG 41424
Procedure: as §2, §3

[18] = tested on: S. maltophilia ATCC 17444
Procedure: as §2, §3

[19] = tested on: E. coli F10
Procedure: as §2, §3

[20] = tested on: E. coli F9
Procedure: as §2, §3

[21] = tested on: E. coli CCUG 41425
Procedure: as §2, §3

[22] = tested on: A. baumannii F263
Procedure: as §2, §3

[23] = tested on: S. aureus ATCC 25923
Procedure: as §2, §3

[24] = tested on: E. cloacae F232
Procedure: as §2, §3

[25] = tested on: C. freundii ATCC 8090
Procedure: as §2, §3

[26] = tested on: E. coli CCUG 41429
Procedure: as §2, §3

[27] = tested on: E. cloacae F230
Procedure: as §2, §3

[28] = tested on: K. pneumoniae ATCC 13883; settings: K. pneumoniae ATCC13883
Procedure: as §2, §3

[29] = tested on: A. baumannii F264
Procedure: as §2, §3

[30] = tested on: E. coli F19
Procedure: as §2, §3

[31] = tested on: P. aeruginosa ATCC 27853
Procedure: as §2, §3

[32] = tested on: K. oxytoca CCUG 51683
Procedure: as §2, §3

[33] = tested on: E. coli CCUG 41427
Procedure: as §2, §3

[34] = tested on: C. albicans ATCC 28366
Procedure: as §2, §3

[35] = tested on: E. cloacae CCUG 52947
Procedure: as §2, §3

[36] = tested on: A. baumannii ATCC 19606
Procedure: as §2, §3

[37] = tested on: E. cloacae ATCC 23355
Procedure: as §2, §3

[38] = tested on: P. aeruginosa CCUG 51971
Procedure: as §2, §3

[39] = tested on: E. coli CCUG 41422
Procedure: as §2, §3

## Polymyxin B [reference compound]
[1]
  Sensitization factor to antibiotic (MIC without / with 4 μg/ml of NAB 7061): 5
[2]
  Sensitization factor to antibiotic (MIC without / with 4 μg/ml of NAB 7061): 1
[3]; P. aeruginosa F58
  MIC: 0.5 mg/L
[4]
  MIC: 1 mg/L
[5]; E. coli ATCC25922
  MIC: 1 mg/L
[6]; K. pneumoniae F136
  MIC: 0.5 mg/L
[7]; E. cloacae F231
  MIC: 0.5 mg/L
[8]; E. coli F8
  MIC: 1 mg/L
[9]
  MIC: 0.5 mg/L
[10]; E. coli NCTC 13352
  MIC: 0.25 mg/L
[11]; E. coli NCTC13353
  MIC: 1 mg/L
[12]; E. coli IH3080
  MIC: 0.5 mg/L
[13]; S. marcescens ATCC8100
  MIC: >32 mg/L
[14]; K. pneumoniae F145
  MIC: 0.5 mg/L
[15]; K. oxytoca ATCC13182
  MIC: 0.5 mg/L
[16]; E. coli CCUG41432
  MIC: 1 mg/L
[17]; E. coli CCUG41424
  MIC: 1 mg/L
[18]; S. maltophilia ATCC17444
  MIC: 1 mg/L
[19]; E. coli F10
  MIC: 0.5 mg/L
[20]; E. coli F9
  MIC: 0.5 mg/L
[21]; E. coli CCUG41425
  MIC: 0.5 mg/L
[22]; A. baumannii F263
  MIC: 1 mg/L
[23]; S. aureus ATCC 25923
  MIC: >32 mg/L
[24]; E. cloacae F232
  MIC: 0.5 mg/L
[25]; C. freundii ATCC8090
  MIC: 1 mg/L
[26]; E. coli CCUG41429
  MIC: 1 mg/L
[27]; E. cloacae F230
  MIC: 0.5 mg/L
[28]
  MIC: 32(−8) μg/ml
[29]; A. baumannii F264
  MIC: 0.5 mg/L
[30]; E. coli F19
  MIC: 1 mg/L
[31]; P. aeruginosa ATCC27853
  MIC: 1 mg/L
[32]; K. oxytoca CCUG51683
  MIC: 0.5 mg/L
[33]; E. coli CCUG41427
  MIC: 1 mg/L
[34]; C. albicans ATCC 28366
  MIC: >32 mg/L
[35]; E. cloacae CCUG52947
  MIC: 1 mg/L
[36]; A. baumannii ATCC 19606
  MIC: 1 mg/L
[37]; E. cloacae ATCC23355
  MIC: 0.5 mg/L

## CCCCCCCC(=O)N[C@H](C(=O)N[C@H](CO)C(=O)N[C@H]1CCNC(=O)[C@H]([C@@H](C)O)NC(=O)[C@H](CCN)NC(=O)[C@H](CCN)NC(=O)[C@H](CC(C)C)NC(=O)[C@@H](Cc2ccccc2)NC(=O)[C@H](CCN)NC1=O)[C@@H](C)O [NAB 739, OA-Thr-DSer-cy[Dab-Dab-DPhe-Leu-Dab-Dab-Thr-]] (Octanoyl-T[dS][Dab][Dab][dF]L[Dab][Dab]T; lactam 3-C)
[3]; F58
  MIC: 8 mg/L (≈ 7.43 µM)
[5]; ATCC 25922
  MIC: 1 mg/L (≈ 0.929 µM)
[6]; F136
  MIC: 1 mg/L (≈ 0.929 µM)
[7]; F231
  MIC: 2 mg/L (≈ 1.86 µM)
[8]; F8
  MIC: 1 mg/L (≈ 0.929 µM)
[10]; NCTC 13352
  MIC: 1 mg/L (≈ 0.929 µM)
[11]; NCTC 13353
  MIC: 1 mg/L (≈ 0.929 µM)
[12]; IH3080
  MIC: 1 mg/L (≈ 0.929 µM)
[38]
  MIC: 8 mg/L (≈ 7.43 µM)
[13]; ATCC 8100
  MIC: >32 mg/L
[14]; F145
  MIC: 2 mg/L (≈ 1.86 µM)
[15]; ATCC 13182
  MIC: 2 mg/L (≈ 1.86 µM)
[16]; CCUG 41432
  MIC: 1 mg/L (≈ 0.929 µM)
[17]; CCUG 41424
  MIC: 1 mg/L (≈ 0.929 µM)
[18]; ATCC 17444
  MIC: 16 mg/L (≈ 14.9 µM)
[19]; F10
  MIC: 1 mg/L (≈ 0.929 µM)
[20]; F9
  MIC: 1 mg/L (≈ 0.929 µM)
[21]; CCUG 41425
  MIC: 1 mg/L (≈ 0.929 µM)
[22]; F263
  MIC: 4 mg/L (≈ 3.72 µM)
[23]; ATCC 25923
  MIC: >32 mg/L
[24]; F232
  MIC: 2 mg/L (≈ 1.86 µM)
[25]; ATCC 8090
  MIC: 2 mg/L (≈ 1.86 µM)
[26]; CCUG 41429
  MIC: 1 mg/L (≈ 0.929 µM)
[27]; F230
  MIC: 2 mg/L (≈ 1.86 µM)
[29]; F264
  MIC: 4 mg/L (≈ 3.72 µM)
[30]; F19
  MIC: 0.5 mg/L (≈ 0.465 µM)
[31]; ATCC 27853
  MIC: 8 mg/L (≈ 7.43 µM)
[32]; CCUG 51683
  MIC: 2 mg/L (≈ 1.86 µM)
[39]
  MIC: 1 mg/L (≈ 0.929 µM)
[33]; CCUG 41427
  MIC: 1 mg/L (≈ 0.929 µM)
[34]; ATCC 28366
  MIC: >32 mg/L
[35]; CCUG 52947
  MIC: 2 mg/L (≈ 1.86 µM)
[36]; ATCC 19606
  MIC: 8 mg/L (≈ 7.43 µM)
[37]; ATCC 23355
  MIC: 2 mg/L (≈ 1.86 µM)
